These compounds were tested against T1, recombinant human baculovirus-expressed GST-tagged FASN (Homo sapiens, UniProt P49327) (assay: FASN enzyme activity assay: fluorescence-based detection of CoA with CPM). Conditions: 5 nM FASN, 150 μM NADPH, 10 μM acetyl-CoA, 25 μM malonyl-CoA, 90 minutes incubation.
T1 construct: GST; host or cells: baculovirus expression system (insect cells implied)
Type: biochemical
Method in brief: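 GST-tagged human FASN (5 nM, baculovirus-expressed) in 50 mM HEPES pH 7.5 with 150 μM NADPH, 10 μM acetyl-CoA and 25 μM malonyl-CoA, 0.5% DMSO, started with malonyl-CoA and run 90 min. CoA was detected with CPM (30 min; ex 390/em 530 nm). IC50 came from sigmoidal variable-slope fits of % inhibition.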

T1 sequence (P49327 whole entry): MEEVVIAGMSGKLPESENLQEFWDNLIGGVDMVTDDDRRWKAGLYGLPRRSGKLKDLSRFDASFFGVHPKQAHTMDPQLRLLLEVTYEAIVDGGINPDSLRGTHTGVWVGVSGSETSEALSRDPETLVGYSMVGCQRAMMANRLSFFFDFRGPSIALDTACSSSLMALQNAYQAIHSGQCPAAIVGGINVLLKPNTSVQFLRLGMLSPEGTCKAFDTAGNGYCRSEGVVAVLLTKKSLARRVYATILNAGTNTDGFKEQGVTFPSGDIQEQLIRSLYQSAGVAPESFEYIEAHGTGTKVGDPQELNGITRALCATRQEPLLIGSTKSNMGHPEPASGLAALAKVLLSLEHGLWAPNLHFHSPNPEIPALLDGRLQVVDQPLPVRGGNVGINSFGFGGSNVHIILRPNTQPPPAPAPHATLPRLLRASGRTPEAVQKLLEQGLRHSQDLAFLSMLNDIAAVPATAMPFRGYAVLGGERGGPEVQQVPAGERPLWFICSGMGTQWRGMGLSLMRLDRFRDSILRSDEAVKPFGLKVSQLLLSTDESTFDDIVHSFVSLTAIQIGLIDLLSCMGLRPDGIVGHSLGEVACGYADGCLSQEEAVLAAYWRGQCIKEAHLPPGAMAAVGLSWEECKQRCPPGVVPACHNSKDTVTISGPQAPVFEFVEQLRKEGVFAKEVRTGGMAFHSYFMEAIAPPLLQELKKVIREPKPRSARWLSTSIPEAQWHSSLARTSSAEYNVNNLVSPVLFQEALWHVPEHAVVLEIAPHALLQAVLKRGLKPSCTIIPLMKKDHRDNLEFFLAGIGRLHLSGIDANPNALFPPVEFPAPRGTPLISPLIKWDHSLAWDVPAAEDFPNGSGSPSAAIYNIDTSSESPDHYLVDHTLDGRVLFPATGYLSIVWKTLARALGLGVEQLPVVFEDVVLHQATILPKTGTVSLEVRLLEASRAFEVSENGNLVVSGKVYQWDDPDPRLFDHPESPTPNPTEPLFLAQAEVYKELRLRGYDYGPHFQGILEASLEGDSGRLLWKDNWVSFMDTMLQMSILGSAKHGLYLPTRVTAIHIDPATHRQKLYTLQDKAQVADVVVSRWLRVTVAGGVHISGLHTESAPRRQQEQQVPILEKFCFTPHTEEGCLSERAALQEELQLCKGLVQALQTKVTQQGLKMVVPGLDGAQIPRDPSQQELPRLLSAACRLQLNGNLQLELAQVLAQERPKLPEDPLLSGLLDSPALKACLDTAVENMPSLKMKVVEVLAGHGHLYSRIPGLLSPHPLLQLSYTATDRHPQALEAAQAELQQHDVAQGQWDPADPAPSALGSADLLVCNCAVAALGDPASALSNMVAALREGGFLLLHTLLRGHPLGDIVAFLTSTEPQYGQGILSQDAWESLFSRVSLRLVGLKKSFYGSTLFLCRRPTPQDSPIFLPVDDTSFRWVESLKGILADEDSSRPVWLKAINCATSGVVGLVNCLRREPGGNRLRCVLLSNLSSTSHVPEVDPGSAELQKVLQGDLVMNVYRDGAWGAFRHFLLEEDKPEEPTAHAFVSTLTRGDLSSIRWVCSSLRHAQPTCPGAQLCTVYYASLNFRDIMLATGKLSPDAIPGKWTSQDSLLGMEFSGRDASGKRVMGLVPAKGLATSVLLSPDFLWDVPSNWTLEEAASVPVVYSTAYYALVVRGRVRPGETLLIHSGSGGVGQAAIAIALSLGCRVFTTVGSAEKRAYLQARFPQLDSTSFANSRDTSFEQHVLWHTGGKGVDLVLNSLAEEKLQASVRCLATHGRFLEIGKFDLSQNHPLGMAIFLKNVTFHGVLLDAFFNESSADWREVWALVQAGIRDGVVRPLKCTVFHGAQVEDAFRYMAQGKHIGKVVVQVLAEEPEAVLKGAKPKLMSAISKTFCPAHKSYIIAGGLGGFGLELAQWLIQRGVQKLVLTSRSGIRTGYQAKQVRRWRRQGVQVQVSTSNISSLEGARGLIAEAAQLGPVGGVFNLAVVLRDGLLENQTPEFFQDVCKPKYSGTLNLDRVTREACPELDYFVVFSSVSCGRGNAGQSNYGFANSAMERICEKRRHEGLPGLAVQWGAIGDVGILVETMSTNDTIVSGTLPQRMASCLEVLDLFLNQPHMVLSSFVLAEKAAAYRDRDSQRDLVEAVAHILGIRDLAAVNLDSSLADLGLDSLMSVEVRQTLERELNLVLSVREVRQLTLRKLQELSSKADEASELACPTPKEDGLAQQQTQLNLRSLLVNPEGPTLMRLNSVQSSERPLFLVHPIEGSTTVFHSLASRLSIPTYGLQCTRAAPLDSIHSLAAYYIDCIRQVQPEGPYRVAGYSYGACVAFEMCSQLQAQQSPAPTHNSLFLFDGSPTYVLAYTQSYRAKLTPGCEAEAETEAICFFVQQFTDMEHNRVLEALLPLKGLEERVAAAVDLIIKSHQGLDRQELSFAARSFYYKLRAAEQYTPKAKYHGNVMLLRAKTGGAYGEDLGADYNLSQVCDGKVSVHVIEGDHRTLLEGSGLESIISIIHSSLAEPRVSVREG

Compared with `Cc1c(-c2ccc(C(F)(F)C3CCN(C(=O)[C@H]4CCCO4)CC3)cc2)cnc2ccccc12` [Example 11, (4-{Difluoro-[4-(4-methylquinolin-3-yl)-phenyl]-methyl}-piperidin-1-yl)-(R)-tetrahydrofuran-2-yl-methanone], `Cc1c(-c2ccc(C(F)(F)C3CCN(C(=O)C4CC4)CC3)cc2)cnc2ccccc12` [Example 10, Cyclopropyl-(4-{difluoro-[4-(4-methyl-quinolin-3-yl)-phenyl]-methyl}-piperidin-1-yl)-methanone] is higher in IC50: 1 to 99 nM for the first, 100 to 999 nM for the second.

First: CCC(=O)N1CCC(C(C)(O)c2ccc(-c3ccc4cnccc4c3)cc2)C1 (centres unmarked) [Example 134, 1-{3-[1-Hydroxy-1-(4-isoquinolin-6-yl-phenyl)-ethyl]-pyrrolidin-1-yl}-propan-1-one]
Second: CCC(=O)N1CCC(C(C)(OC)c2ccc(-c3ccc4cccnc4c3)cc2)CC1 (centres unmarked) [Example 212, 1-{4-[1-Methoxy-1-(4-quinolin-7-yl-phenyl)-ethyl]-piperidin-1-yl}-propan-1-one]
The IC50 of the first is higher: 1000 to 10000 nM for the first, 1 to 99 nM for the second.

`CCC(=O)N1CCC(F)(Cc2ccc(-c3cncc4ccccc34)cc2)CC1` [Example 167, 1-(4-fluoro-4-(4-(isoquinolin-4-yl)benzyl)piperidin-1-yl)propan-1-one] and `CCC(=O)N1CCC(F)(Cc2ccc(-c3cnc4ccccc4c3C)cc2)CC1` [Example 195, 1-(4-Fluoro-4-(4-(4-methylquinolin-3-yl)benzyl)piperidin-1-yl)propan-1-one] fall in the same range of IC50: 1 to 99 nM for the first, 1 to 99 nM for the second.

`CCC(=O)N1CCC(C#N)(Cc2ccc(-c3ccc4cccnc4c3OC)cc2)CC1` [Example 92, 4-[4-(8-methoxyquinolin-7-yl)-benzyl]-1-propionylpiperidine-4-carbonitrile] and `CCC(=O)N1CCC(F)(Cc2ccc(-c3cnc4ccccc4c3)cc2)CC1` [Example 161, 1-(4-fluoro-4-(4-(quinolin-3-yl)benzyl)piperidin-1-yl)propan-1-one] fall in the same range of IC50: 1 to 99 nM for the first, 1 to 99 nM for the second.

`O=C([C@H]1CCCO1)N1CCC(Cc2ccc(-c3cnc4ccccc4c3Cl)cc2)CC1` [Example 22, {4-[4-(4-Chloroquinolin-3-yl)-benzyl]-piperidin-1-yl}-(R)-tetrahydrofuran-2-yl-methanone] and `O=C([C@H]1CCCO1)N1CCC(Cc2ccc(-c3ccc4cccnc4c3Cl)cc2)CC1` [Example 31, {4-[4-(8-Chloroquinolin-7-yl)-benzyl]-piperidin-1-yl}-(R)-tetrahydrofuran-2-yl-methanone] fall in the same range of IC50: 1 to 99 nM for the first, 1 to 99 nM for the second.

Compared with `CC(C)C(=O)N1CCC(C2(c3ccc(-c4cnc5ccccc5c4)cc3)OCCO2)CC1` [Example 140, 2-Methyl-1-{4-[2-(4-quinolin-3-yl-phenyl)-1,3-dioxolan-2-yl]-piperidin-1-yl}-propan-1-one], `CCC(=O)N1CCC(C2(c3ccc(-c4cnc5ccccc5c4)cc3)OCCO2)CC1` [Example 139, 1-{4-[2-(4-Quinolin-3-yl-phenyl)-1,3-dioxolan-2-yl]-piperidin-1-yl}-propan-1-one] is lower in IC50: 100 to 999 nM for the first, 1 to 99 nM for the second.

First: CCC(=O)N1CCC(C(C)c2ccc(-c3cnc4ccccc4c3)cc2)CC1 (centres unmarked) [Example 39, 1-(4-(1-(4-(quinolin-3-yl)phenyl)ethyl)piperidin-1-yl)propan-1-one]
Second: CCC(=O)N1CCC(C(c2ccc(-c3cnc4ccccc4c3)cc2)C(C)C)CC1 (centres unmarked) [Example 61, 1-{4-[2-Methyl-1-(4-quinolin-3-yl-phenyl)-propyl]-piperidin-1-yl}-propan-1-one]
The IC50 of the first is lower: 1 to 99 nM for the first, 100 to 999 nM for the second.

First: O=C(C1CC1)N1CC=C(Cc2ccc(-c3ccc4cnccc4c3)cc2)CC1 [Example 176, Cyclopropyl(4-(4-(isoquinolin-6-yl)benzyl)-5,6-dihydropyridin-1(2H)-yl)methanone]
Second: O=C(C1CCCO1)N1CC=C(Cc2ccc(-c3ccc4cccnc4c3)cc2)CC1 (stereo in doubt) [Example 188, (R)-(4-(4-(quinolin-7-yl)benzyl)-5,6-dihydropyridin-1(2H)-yl)(tetrahydrofuran-2-yl)methanone]
The IC50 of the first is higher: 100 to 999 nM for the first, 1 to 99 nM for the second.

First: CCC(=O)N1CCC(Cc2ccc(-c3cnc4ccccc4c3)cc2)C(=O)C1 (centres unmarked) [Example 220, 1-Propionyl-4-(4-quinolin-3-yl-benzyl)-piperidin-3-one]
Second: CCC(=O)N1CCC(C(CC)c2ccc(-c3cnc4ccccc4c3)cc2)CC1 (centres unmarked) [Example 47, 1-{4-[1-(4-Quinolin-3-yl-phenyl)-propyl]-piperidin-1-yl}-propan-1-one]
The IC50 of the first is higher: 100 to 999 nM for the first, 1 to 99 nM for the second. The second is the more potent here.

`Cc1c(-c2ccc(C(C)C3CCN(C(=O)C4CC4)CC3)cc2)ccc2cccnc12` (centres unmarked) [Example 63, Cyclopropyl-(4-{1-[4-(8-methylquinolin-7-yl)-phenyl]-ethyl}-piperidin-1-yl)-methanone] and `Cc1c(-c2ccc(CC3CCN(C(=O)N4CCCC4)CC3)cc2)ccc2cccnc12` [Example 234, [4-[[4-(8-methyl-7-quinolyl)phenyl]methyl]-1-piperidyl]-pyrrolidin-1-yl-methanone] fall in the same range of IC50: 1 to 99 nM for the first, 1 to 99 nM for the second.

`Cc1c(-c2ccc(CC3=CCN(C(=O)[C@H]4CCCO4)CC3)cc2)cnc2ccccc12` [Example 182, (R)-(4-(4-(4-methylquinolin-3-yl)benzyl)-5,6-dihydropyridin-1(2H)-yl)(tetrahydrofuran-2-yl)methanone] and `CCC(=O)N1CC=C(Cc2ccc(-c3cnc4ccccc4c3C)cc2)CC1` [Example 196, 1-(4-(4-(4-Methylquinolin-3-yl)benzyl)-5,6-dihydropyridin-1(2H)-yl)propan-1-one] fall in the same range of IC50: 1 to 99 nM for the first, 1 to 99 nM for the second.

`CCC(=O)N1CCC(C2(c3ccc(-c4ccc(CN(C)C)cc4)cc3)OCCO2)CC1` [Example 136, 1-{4-[2-(4′-Dimethylaminomethyl-biphenyl-4-yl)-1,3-dioxolan-2-yl]-piperidin-1-yl}-propan-1-one] and `CCC(=O)N1CCC(C2(c3ccc(-c4ccc5cccnc5c4)cc3)OCCCO2)CC1` [Example 123, 1-{4-[2-(4-Quinolin-7-yl-phenyl)-1,3-dioxinan-2-yl]-piperidin-1-yl}-propan-1-one] fall in the same range of IC50: 1000 to 10000 nM for the first, 1000 to 10000 nM for the second.

`CCOC(=O)N1CCC(C2(c3ccc(-c4ccc5ncccc5c4)cc3)OCCO2)CC1` [Example 101, 4-[2-(4-Quinolin-6-yl-phenyl)-1,3-dioxolan-2-yl]-piperidine-1-carboxylic Acid Ethyl Ester] and `CC(C)C(=O)N1CCC(C2(c3ccc(-c4ccc5cccnc5c4)cc3)OCCO2)CC1` [Example 111, 2-Methyl-1-{4-[2-(4-quinolin-7-yl-phenyl)-1,3-dioxolan-2-yl]-piperidin-1-yl}-propan-1-one] fall in the same range of IC50: 1000 to 10000 nM for the first, 1000 to 10000 nM for the second.

`O=C([C@H]1CCCO1)N1CCC(O)(Cc2ccc(-c3cc4ccccc4cn3)cc2)CC1` [Example 146, [4-Hydroxy-4-(4-isoquinolin-3-yl-benzyl)-piperidin-1-yl]-(R)-tetrahydro-furan-2-yl-methanone] and `O=C(C1CC1)N1CCC(F)(Cc2ccc(-c3ccc4cccnc4c3)cc2)CC1` [Example 173, Cyclopropyl(4-fluoro-4-(4-(quinolin-7-yl)benzyl)piperidin-1-yl)methanone] fall in the same range of IC50: 100 to 999 nM for the first, 100 to 999 nM for the second.

`CCC(=O)N1CCC(C(c2ccc(-c3cnc4ccccc4c3)cc2)C2CC2)CC1` (centres unmarked) [Example 48, 1-{4-[Cyclopropyl-(4-quinolin-3-yl-phenyl)-methyl]-piperidin-1-yl}-propan-1-one] was tested, and the IC50 was 100 to 999 nM.
